Data as given in patent US11141452B2, “Bifunctional compounds for relief of pain comprising an opioid receptor agonist moiety and a NK1 receptor antagonist moiety and methods for treating pain” (THE ARIZONA BOARD OF REGENTS ON BEHALF OF THE UNIVERSITY OF …, priority 2014, dated 2021).
Several values for one entry are separate records, joined by “and”; a condition that tells them apart may be missing. Equal values may be shown once. Read-outs that look alike come from different tables or passages of the source. Non-standard residues stand in square brackets, D forms with d. Residues, ends and D or L forms follow the SMILES beside them. *: point of attachment. NH(3,5-(CF3)2-benzyl) = FC(F)(F)c1cc(CN*)cc(C(F)(F)F)c1; NMeW = CN[C@@H](Cc1c[nH]c2ccccc12)C(=O)O; NMeF = CN[C@@H](Cc1ccccc1)C(=O)O

Key:
rNK1 = rNK1 (Rattus norvegicus, UniProt P14600); assay: Radioligand binding assay at rat NK1 receptor
Sequence of rNK1 (P14600 whole entry): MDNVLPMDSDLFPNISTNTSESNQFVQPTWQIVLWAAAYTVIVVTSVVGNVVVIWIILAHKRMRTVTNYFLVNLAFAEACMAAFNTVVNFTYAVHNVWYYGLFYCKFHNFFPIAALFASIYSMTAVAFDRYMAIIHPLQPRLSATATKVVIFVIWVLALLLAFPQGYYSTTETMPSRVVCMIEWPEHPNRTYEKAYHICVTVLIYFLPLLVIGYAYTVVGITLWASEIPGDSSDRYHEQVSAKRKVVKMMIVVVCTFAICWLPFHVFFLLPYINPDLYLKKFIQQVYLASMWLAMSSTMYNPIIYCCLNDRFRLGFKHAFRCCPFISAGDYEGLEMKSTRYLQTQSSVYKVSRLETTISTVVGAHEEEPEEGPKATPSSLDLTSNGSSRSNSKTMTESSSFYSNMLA
Method: (§1) Binding affinities of these ligands were measured on radioligand binding assays. […] ([43]).

DOR [1] = molecular target: DOR (Homo sapiens, UniProt P41143); assay: Radioligand binding assay at δ opioid receptor; details: for Ki: Ki^δ (nM)
Sequence of DOR (Homo sapiens, UniProt P41143) (P41143 whole entry): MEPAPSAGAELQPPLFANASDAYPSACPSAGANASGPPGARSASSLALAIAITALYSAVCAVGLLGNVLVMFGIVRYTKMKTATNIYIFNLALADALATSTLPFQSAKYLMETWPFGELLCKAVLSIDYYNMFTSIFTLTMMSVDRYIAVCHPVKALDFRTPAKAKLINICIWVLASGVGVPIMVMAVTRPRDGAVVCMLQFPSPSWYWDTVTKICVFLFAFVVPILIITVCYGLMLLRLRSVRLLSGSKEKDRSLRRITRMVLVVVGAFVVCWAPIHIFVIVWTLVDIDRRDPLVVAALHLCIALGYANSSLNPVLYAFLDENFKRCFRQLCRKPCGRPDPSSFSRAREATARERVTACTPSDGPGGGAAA
Method: as §1

MOR [2] = assay: Radioligand binding assay at μ opioid receptor; details: for Log[IC50±] (μ): log IC50 ± error; for Ki^μ/Ki^δ: ratio of binding affinities MOR/DOR
Method: as §1

hNK1 = molecular target: T1, hNK1 (Homo sapiens, UniProt P25103); assay: hNK1/CHO cell membrane radioligand binding assay ([3H]SP); details: for Ki: hNK1/CHO membranes, [3H]SP; for Ki^hNK1/Ki^rNK1: ratio human/rat NK1
T1 construct: expressed in transfected cells; host or cells: CHO
T1 sequence (P25103 whole entry): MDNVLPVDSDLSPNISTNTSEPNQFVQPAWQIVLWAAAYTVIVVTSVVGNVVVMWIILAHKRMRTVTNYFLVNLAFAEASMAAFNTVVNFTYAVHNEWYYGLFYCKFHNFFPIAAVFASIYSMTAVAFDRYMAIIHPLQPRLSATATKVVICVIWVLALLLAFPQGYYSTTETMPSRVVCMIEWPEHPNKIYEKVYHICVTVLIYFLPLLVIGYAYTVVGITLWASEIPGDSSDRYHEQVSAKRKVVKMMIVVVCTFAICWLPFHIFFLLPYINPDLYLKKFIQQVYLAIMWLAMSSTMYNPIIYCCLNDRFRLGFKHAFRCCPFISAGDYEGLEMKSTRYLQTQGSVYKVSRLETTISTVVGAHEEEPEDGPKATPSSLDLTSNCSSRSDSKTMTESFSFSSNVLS

MOR [3] = assay: Guinea pig isolated ileum (GPI) functional assay; type: cell-based
NK1R = molecular target: T2, NK1R (Cavia porcellus, UniProt P30547); assay: GPI/LMMP functional assay at NK1R (agonist and antagonist testing); type: cell-based, guinea pig; details: for GPI/LMMP (NK1R) Agonist: agonist activity at the concentration in the cell
T2 construct: The longitudinal muscle with myenteric plexus (LMMP) was carefully separated from the circular muscle; from tissue; host or cells: guinea pig ileum longitudinal muscle with myenteric plexus
T2 sequence (P30547 whole entry): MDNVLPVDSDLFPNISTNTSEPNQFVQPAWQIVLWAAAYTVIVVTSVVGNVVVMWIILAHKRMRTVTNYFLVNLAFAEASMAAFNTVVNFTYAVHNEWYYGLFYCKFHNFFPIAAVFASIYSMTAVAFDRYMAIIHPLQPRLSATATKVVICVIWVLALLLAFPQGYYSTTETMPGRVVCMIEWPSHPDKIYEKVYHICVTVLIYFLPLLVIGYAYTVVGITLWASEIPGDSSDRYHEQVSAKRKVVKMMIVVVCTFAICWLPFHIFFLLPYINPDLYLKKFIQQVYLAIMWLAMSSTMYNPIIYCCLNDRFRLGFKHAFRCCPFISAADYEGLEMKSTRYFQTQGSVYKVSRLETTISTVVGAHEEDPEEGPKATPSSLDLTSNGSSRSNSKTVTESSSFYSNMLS

DOR [4] = molecular target: T3, DOR (Mus musculus, UniProt P32300); assay: Mouse isolated vas deferens (MVD) functional assay; type: cell-based
T3 construct: Male ICR mice under CO2 anesthesia were sacrificed by cervical dislocation and the vasa differentia removed; from tissue; host or cells: mouse vas deferens (ICR mice)
T3 sequence (P32300 whole entry): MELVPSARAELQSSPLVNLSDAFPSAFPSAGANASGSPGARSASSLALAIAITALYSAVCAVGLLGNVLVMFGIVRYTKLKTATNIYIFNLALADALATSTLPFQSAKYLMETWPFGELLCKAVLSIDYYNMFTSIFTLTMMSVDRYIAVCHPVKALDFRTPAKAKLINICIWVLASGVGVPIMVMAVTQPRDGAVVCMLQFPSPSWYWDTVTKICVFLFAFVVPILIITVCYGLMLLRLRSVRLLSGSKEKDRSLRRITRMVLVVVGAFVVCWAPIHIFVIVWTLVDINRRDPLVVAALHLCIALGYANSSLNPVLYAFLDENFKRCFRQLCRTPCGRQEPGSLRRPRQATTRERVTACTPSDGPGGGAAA

[5] = agonist activity, electrically stimulated tissue, read-out: GPI (MOR) IC50
[6] = GPI/LMMP (NK1R) Ke (nM) ± S.E.M., antagonist activity
[7] = MVD (DOR) IC50 (nM), agonist activity, electrically stimulated tissue

Compound | Ki (rNK1; Ki^rNK1 (nM)) | IC50 (DOR [1]) [nM] | Ki (DOR [1]) [nM] | Log[IC50±] (μ) (MOR [2]) | Ki^μ/Ki^δ (MOR [2]) | Ki (hNK1; Ki^hNK1 (nM)) | Ki (MOR [2]) [nM] | IC50 (MOR [3]; [5]) | IC50 (DOR [4]; [7]) [nM] | Ki^hNK1/Ki^rNK1 (hNK1) | GPI/LMMP (NK1R) Agonist (NK1R) | also measured
CC(C)C[C@H](NC(=O)[C@@H]1CCCN1C(=O)[C@H](CC(N)=O)NC(=O)[C@H](Cc1ccccc1)NC(=O)CNC(=O)[C@@H](C)NC(=O)[C@@H](N)Cc1ccc(O)cc1)C(=O)N[C@@H](Cc1c[nH]c2ccccc12)C(=O)NCc1cc(C(F)(F)F)cc(C(F)(F)F)c1 [AKG104] | 20 nM | 37.2 | 17 | −6.93 ± 0.05 | 3/1 |  |  |  |  |  |  | 
CC(C)C[C@H](NC(=O)[C@@H]1CCCN1C(=O)[C@H](CCC(N)=O)NC(=O)[C@H](Cc1ccccc1)NC(=O)CNC(=O)[C@@H](C)NC(=O)[C@@H](N)Cc1ccc(O)cc1)C(=O)N[C@@H](Cc1c[nH]c2ccccc12)C(=O)NCc1cc(C(F)(F)F)cc(C(F)(F)F)c1 [AKG105] | 12 nM | 20.4 | 9 | −7.06 ± 0.18 |  | 1 nM |  |  |  |  |  | 
CCCC[C@H](NC(=O)[C@H](Cc1ccccc1)N(C)C(=O)CNC(=O)[C@@H](C)NC(=O)[C@@H](N)Cc1ccc(O)cc1)C(=O)N1CCC[C@H]1C(=O)N[C@@H](CC(C)C)C(=O)N[C@@H](Cc1c[nH]c2ccccc12)C(=O)NCc1cc(C(F)(F)F)cc(C(F)(F)F)c1 [AKG112, H-Tyr-D-Ala-Gly-NMePhe-Nle-Pro-Leu-Trp-NH-Bn(3′,5′-(CF3)2)] |  | 50.1 |  | −7.51 ± 0.04 |  |  | 13 | 718 nM | 11.6 ± 2.55 |  |  | Kb (NK1R; [6]): 5.4 ± 2.1 nM
Cc1cc(O)cc(C)c1C[C@H](N)C(=O)N[C@H](C)C(=O)NCC(=O)N[C@@H](Cc1ccccc1)C(=O)N1CCC[C@H]1C(=O)N[C@@H](CC(C)C)C(=O)N[C@@H](Cc1c[nH]c2ccccc12)C(=O)NCc1cc(C(F)(F)F)cc(C(F)(F)F)c1 [AKG116, H-Dmt-D-Ala-Gly-Phe-Pro-Leu-Trp-NH-Bn(3′,5′-(CF3)2)] |  | 2.19 | 1 | −8.63 ± 0.04 | 3/1 | 1.4 nM | 3 | 80.8 nM | 3.1 | 1/19 | None at 100 nM | GPI/MVD IC50 ratio (MOR [3]): 26/1; Kb (NK1R; antagonist activity, read-out: GPI/LMMP (NK1R) Ke (nM) ± S.E.M.): 25 nM and 24.9 nM; higher agonist activity at DOR compared to MOR (functional assays) (DOR [4]): 26 times
CC(C)C[C@H](NC(=O)[C@@H]1CCCN1C(=O)CCCNC(=O)[C@H](Cc1ccccc1)N(C)C(=O)CNC(=O)[C@@H](C)NC(=O)[C@@H](N)Cc1ccc(O)cc1)C(=O)N[C@@H](Cc1c[nH]c2ccccc12)C(=O)NCc1cc(C(F)(F)F)cc(C(F)(F)F)c1 [AKG123, H-Tyr-D-Ala-Gly-NMePhe-γ-Abu-Pro-Leu-Trp-NH-Bn(3′,5′-(CF3)2)] |  | 5.89 | 3 | −7.73 ± 0.07 |  |  | 9 | 424 ± 148 nM |  |  |  | Kb (NK1R): 2.3 ± 0.7 nM; IC50 (DOR [4]): 50.1 ± 17.4 nM
CC(C)C[C@H](NC(=O)[C@@H]1CCCN1C(=O)CCCCCNC(=O)[C@H](Cc1ccccc1)N(C)C(=O)CNC(=O)[C@@H](C)NC(=O)[C@@H](N)Cc1ccc(O)cc1)C(=O)N[C@@H](Cc1c[nH]c2ccccc12)C(=O)NCc1cc(C(F)(F)F)cc(C(F)(F)F)c1 [AKG124, H-Tyr-D-Ala-Gly-NMePhe-[4]6-Ahx-Pro-Leu-Trp-NH-Bn(3′,5′-(CF3)2)] |  | 72.4 |  | −7.80 ± 0.09 |  |  | 7 | 255 ± 71.2 nM |  | 1/36 | None at 100 nM | GPI/MVD IC50 ratio (MOR [3]): 7/1; Kb (NK1R): 11.2 ± 3.1 nM; IC50 (DOR [4]): 36.8 ± 13.6 nM
CC(C)C[C@H](NC(=O)[C@@H]1CCCN1C(=O)[C@H](CO)NC(=O)[C@H](Cc1ccccc1)N(C)C(=O)CNC(=O)[C@@H](C)NC(=O)[C@@H](N)Cc1ccc(O)cc1)C(=O)N[C@@H](Cc1c[nH]c2ccccc12)C(=O)NCc1cc(C(F)(F)F)cc(C(F)(F)F)c1 [AKG126] (H-Y[dA]G[NMeF]SPLW-{NH(3,5-(CF3)2-benzyl)}) |  | 148 |  | −8.30 ± 0.11 | 1/31 | 1 nM | 2 | 240 nM | 25.9 ± 6.69 | 1/37 | None at 30 nM | binding selectivity for MOR over DOR (MOR [2]): 31 times; GPI/MVD IC50 ratio (MOR [3]): 9/1; IC50 (MOR [3]; head of Table IX, read-out: GPI (MOR) ID50): 237 ± 29.2 nM; Kb (NK1R; [6]): 17 nM and 16.5 nM; higher agonist activity at DOR compared to MOR (functional assays) (DOR [4]): 9 times
Cc1cc(O)cc(C)c1C[C@H](N)C(=O)N[C@H](C)C(=O)NCC(=O)N(C)[C@@H](Cc1ccc(F)cc1)C(=O)N1CCC[C@H]1C(=O)N[C@@H](CC(C)C)C(=O)N[C@@H](Cc1c[nH]c2ccccc12)C(=O)NCc1cc(C(F)(F)F)cc(C(F)(F)F)c1 [AKG128, H-Dmt-D-Ala-Gly-NMePhe(4-F)-Pro-Leu-Trp-NH-Bn(3′,5′-(CF3)2)] |  |  |  | −8.55 ± 0.18 | 1/4 |  | 1 | 76.5 nM | 11.5 ± 5.6 | 1/13 | None at 30 nM | Kb (NK1R; [6]): 11.2 ± 2.7 nM; higher agonist activity at DOR compared to MOR (functional assays) (DOR [4]): ~7 times
CC(C)C[C@H](NC(=O)[C@@H]1CCCN1C(=O)Cc1ccc(NC(=O)[C@H](Cc2ccccc2)N(C)C(=O)CNC(=O)[C@@H](C)NC(=O)[C@@H](N)Cc2ccc(O)cc2)cc1)C(=O)N[C@@H](Cc1c[nH]c2ccccc12)C(=O)NCc1cc(C(F)(F)F)cc(C(F)(F)F)c1 [AKG177, H-Tyr-D-Ala-Gly-NMePhe-4-Apac-Pro-Leu-Trp-NH-Bn(3′,5′-(CF3)2)] |  | 148 | 70 | −8.68 ± 0.19 | 1/70 |  | 1 | 41 nM and 40.8 nM |  | 1/14 | None at 100 nM | GPI/MVD IC50 ratio (MOR [3]): 1/1; Kb (NK1R): 39.2 ± 7.9 nM; IC50 (DOR [4]): 35 ± 7.89 nM
Cc1cc(O)cc(C)c1C[C@H](N)C(=O)N[C@H](C)C(=O)N(C)CC(=O)N(C)[C@@H](Cc1ccccc1)C(=O)N1CCC[C@H]1C(=O)N[C@@H](CC(C)C)C(=O)N[C@@H](Cc1c[nH]c2ccccc12)C(=O)NCc1cc(C(F)(F)F)cc(C(F)(F)F)c1 [AKG182, H-Dmt-D-Ala-NMeGly-NMePhe-Pro-Leu-Trp-NH-Bn(3′,5′-(CF3)2)] | 110 ± 18.3 nM |  |  |  |  |  |  |  |  | 1/22 |  | 
Cc1cc(O)cc(C)c1C[C@H](N)C(=O)N[C@H](C)C(=O)NCC(=O)N[C@@H](Cc1ccc(Cl)cc1)C(=O)N1CCC[C@H]1C(=O)N[C@@H](CC(C)C)C(=O)N[C@@H](Cc1c[nH]c2ccccc12)C(=O)NCc1cc(C(F)(F)F)cc(C(F)(F)F)c1 [AKG191, H-Dmt-D-Ala-Gly-Phe(4-Cl)-Pro-Leu-Trp-NH-Bn(3′,5′-(CF3)2)] |  |  |  | −8.33 ± 0.09 |  |  | 2 | 166 ± 71.6 nM | 25.4 ± 7.7 | 1/9 | None at 300 nM | 
CC(C)C[C@H](NC(=O)[C@@H]1CCCN1C(=O)[C@H](Cc1ccccc1)NC(=O)[C@H](Cc1c[nH]c2ccccc12)NC(=O)[C@@H]1CCCN1C(=O)[C@@H](N)Cc1ccc(O)cc1)C(=O)N[C@@H](Cc1c[nH]c2ccccc12)C(=O)NCc1cc(C(F)(F)F)cc(C(F)(F)F)c1 [AKG221, H-Tyr-Pro-Trp-Phe-Pro-Leu-Trp-NH-Bn(3′,5′-(CF3)2)] (H-YPWFPLW-{NH(3,5-(CF3)2-benzyl)}) | 38.5 ± 3.6 nM |  |  |  |  | 3.34 ± 0.32 nM |  |  |  |  |  | 
CC(C)C[C@H](NC(=O)[C@@H]1CCCN1C(=O)[C@H](Cc1ccccc1)N(C)C(=O)[C@H](Cc1c[nH]c2ccccc12)NC(=O)[C@@H]1CCCN1C(=O)[C@@H](N)Cc1ccc(O)cc1)C(=O)N[C@@H](Cc1c[nH]c2ccccc12)C(=O)NCc1cc(C(F)(F)F)cc(C(F)(F)F)c1 [AKG223, H-Tyr-Pro-Trp-NMePhe-Pro-Leu-Trp-NH-Bn(3′,5′-(CF3)2)] (H-YPW[NMeF]PLW-{NH(3,5-(CF3)2-benzyl)}) | 10.1 ± 6.3 nM |  |  |  |  | 3.59 ± 0.3 nM |  |  |  |  |  | 
CC(C)C[C@H](NC(=O)[C@@H]1CCCN1C(=O)[C@H](Cc1ccccc1)N(C)C(=O)[C@H](Cc1c[nH]c2ccccc12)N(C)C(=O)[C@@H]1CCCN1C(=O)[C@@H](N)Cc1ccc(O)cc1)C(=O)N[C@@H](Cc1c[nH]c2ccccc12)C(=O)NCc1cc(C(F)(F)F)cc(C(F)(F)F)c1 [AKG225, H-Tyr-Pro-NMeTrp-NMePhe-Pro-Leu-Trp-NH-Bn(3′,5′-(CF3)2)] (H-YP[NMeW][NMeF]PLW-{NH(3,5-(CF3)2-benzyl)}) | 302 ± 78.5 nM |  |  |  |  | 14.8 ± 1.4 nM |  |  |  | 1/20 |  | 
CC(C)C[C@H](NC(=O)[C@@H]1CCCN1C(=O)[C@H](Cc1ccccc1)NC(=O)CNC(=O)[C@@H](C)NC(=O)[C@@H](N)Cc1ccc(O)cc1)C(=O)N[C@@H](Cc1c[nH]c2ccccc12)C(=O)NCc1cc(C(F)(F)F)cc(C(F)(F)F)c1 [TY012, reference compound] |  |  |  | −7.7 ± 0.21 |  |  |  |  |  |  |  | Ki (rNK1; read-out: Ki^rNK1): 33 nM; Ki (hNK1; read-out: Ki^hNK1): 0.61 nM
CSCC[C@H](NC(=O)[C@H](Cc1ccccc1)NC(=O)CNC(=O)[C@@H](C)NC(=O)[C@@H](N)Cc1ccc(O)cc1)C(=O)N1CCC[C@H]1C(=O)N[C@@H](CC(C)C)C(=O)N[C@@H](Cc1c[nH]c2ccccc12)C(=O)NCc1cc(C(F)(F)F)cc(C(F)(F)F)c1 [TY027, H-Tyr-D-Ala-Gly-Phe-Met-Pro-Leu-Trp-NH-Bn(3′,5′-(CF3)2), reference compound] | 10 nM and 14 nM |  |  |  |  | 1.5 nM and 2 nM |  |  |  |  |  | 
